Experimental data taken from patent US20080161272A1, “Ceramide derivatives, method for preparing the same, and therapeutic agent for treating atopic dermatitis comprising the ceramide derivatives” (Neopharm Co., Ltd., priority 2006, published 2008).

Experiments:
T lymphocyte = experiment: Effects on generation of cytokines in ConA-activated spleen T lymphocyte (ELISA); assay type: cell-based; settings: Balb/C mouse spleen cells, ConA 1 μg/ml, pre-treated 30 minutes before, 48 hours, 1, and 20 μM, FIG. 1
Protocol: First, in order to determine effects of K6PC-9P and K6PC-9 on generation of cytokines in T lymphocyte, spleen T lymphocyte was separated, and then treated with ConA for its activation. […] Accordingly, substances that increase the expression of the Th1 cytokines or suppress the expression of the Th2 cytokines may be useful to treat the atopic dermatitis. In this experiment, the K6PC-9P and K6PC-9 were evaluated for their control abilities to express the Th1 cytokine, interleukin-2, and the Th2 cytokine, interleukin-4.
The mouse spleen was extracted from a Balb/C mouse to separate splenocyte. The separated splenocyte was plated onto a 96-well plate in a density of 1×10^6 cells/ml. Then, T lymphocyte in the splenocyte was activated with ConA (1 μg/ml). The K6PC-9P and K6PC-9 were pre-treated 30 minutes before the treatment with ConA. 48 hours after the treatment with ConA, culture supernatant was collected, and subject to the ELISA (enzyme-linked immunosorbent assay). The ELISA used an ELISA kit from a R&D system, and performed experiments, as follows. However, the method specified later is described as one example, and the method is identical over the entire procedures, but densities of antibodies and standard sample may be slightly varied depending on the kinds of cytokines to be measured. A capture antibody was diluted to a density of 0.6 μg/ml, and transferred to an ELISA plate by 100 μl, and the plate was sealed and kept overnight at a room temperature. The capture antibody was discarded, and the plate was washed three times with a wash buffer (PBS containing 0.05% Tween 20 (pH 7.4)). 200 μl of a blocking buffer (PBS containing 1% BSA, 5% sucrose and 0.05% NaN) was put into plate wells, kept at a room temperature for 1 hour, and then washed three times with a wash buffer. The collected culture supernatant and the standard sample were prepared using a dilution buffer (TBS containing 0.1% BSA and 0.05% Tween 20), put into plate wells, and then kept at a room temperature for 2 hours. The plate was washed three times with a wash buffer, and a biotinylated detection antibody was diluted with a dilution buffer to a density of 200 ng/ml, and then put into the plate wells. 2 hours after the treatment, the plate was washed three times with a wash buffer, and streptavidin HRP was added to the plate, and then kept for 20 minutes. […] When the colors were suitably developed on the plate, the reaction was stopped with a stop solution (1M H2SO4), and its absorbance was measured at wavelengths of 450 nm and 540 nm. A standard curve was plotted using the standard absorbance obtained by subtracting a 540 nm absorbance value from a 450 nm absorbance value, and a density of cytokines to be measured was calculated using the standard absorbance of the culture supernatant.

NC/Nga mouse = experiment: Atopic dermatitis caused by dust mite extract in NC/Nga mouse, ear thickness; assay type: in vivo; settings: two kinds of dust mites (D. pteronyssinus, D. farinae), applied to ear dorsal surface 30 minutes before extract, 16 days, FIGS. 2 and 3
Excerpt: Next, an animal model (NC/Nga mouse) where a mouse suffers from atopic dermatitis was used to evaluate an inflammation control effects of the K6PC-9P on the atopic dermatitis. The NC/Nga mouse is a mouse that spontaneously suffers from the dermatitis, and has been proven to be an animal model that is the most suitably used to treat atopic dermatitis. Therefore, The NC/Nga mouse has been widely used in the animal model to evaluate substances that are effective to treat the atopic dermatitis. For this experiment, a dust mite that is a representative inducer factor of the atopic dermatitis was applied to a NC/Nga mouse to induce the dermatitis.
The extract of dust mite (Dermatophagoides pteronyssinus, Dermatophagoides farinae) was commercially available from Woongbee Meditech Co. (Korea), and the dust mite extract was dissolved in 10 mg/ml of phosphate buffered saline (PBS) containing 0.5% Tween 20, and then used herein. NC/Nga mice were bred under conventional breeding conditions, and induced to develop into the atopic dermatitis. […] The […] and K6PC-9 were applied onto the ear dorsal surfaces of the mice 30 minutes before the application of the dust mite extract, and the efficiency of the therapeutic agent was evaluated for a level of an intercurrent disease by measuring a thickness of a mouse ear.

hairless mouse = experiment: Suppression of epidermal proliferation in tape-stripping hyperplasia model, epidermal thickness (H&E); assay type: in vivo; settings: tape stripping twice per day for 5 days, 1% applied twice per day for 3 days, compared to the control (vehicle)
Excerpt: Effects on Suppression of Epidermal Proliferation Next, in order to evaluate effects of the K6PC-9P on the skin hyperplasia that is one of the representative skin disorders in the atopic dermatitis, a hyperplasia model where a mouse has overgrown cuticles was established by repeating a tape stripping procedure on a hairless mouse in the Examples according to the present invention. This hyperplasia model was established since the atopic skin has ill-balanced conditions in the epidermal proliferation and differentiation, and particularly has an increased epidermal proliferation level, but has a pattern in which mouse epidermis grows abnormally due to the reduced differentiation level. Accordingly, to recover this ill-balanced condition into a normal state may be considered to be an important point to treat the atopic dermatitis.
Hyperplasia in the back of a hairless mouse was induced by subjecting the tape stripping procedure twice per day for 5 days, and 1% K6PC-9P was applied to the hairless mouse twice per day for 3 days from the third day to fifth day of the induction of the atopic dermatitis. Then, mouse skin tissues were biopsied and fixed into a paraffin wax, and determined for epidermal thickness using a Hematoxylin & Eosin staining method. […]

Row | Compound | generation of the Th1 cytokine, interleukin-2 (T lymphocyte) | generation of the Th2 cytokine, interleukin-4 (T lymphocyte) | increase in the thickness of the mouse ear caused by dust mite extract (NC/Nga mouse) | growth of the mouse epidermis (epidermal thickness) (hairless mouse)
1 | CCCCCCCC(=O)C(CCCCCC)C(=O)NCCOP(=O)(O)O (stereo not shown) [K6PC-9P, N-(ethyl dihydrogenphosphate)-2-hexyl-3-oxo-decanamide] | increases | decreases | significantly suppresses | suppressed significantly
2 | CCCCCCCC(=O)C(CCCCCC)C(=O)NCCO (stereo not shown) [K6PC-9, N-ethanol-2-hexyl-3-oxo-decanamide, reference compound] | does not affect | does not affect | slight suppression effect | –
